Assay results from patent EP4813992A1, “POLYARYL DERIVATIVE AND USE THEREOF” (Hangzhou HealZen Therapeutics Co., Ltd., priority 2023, dated 2025).

Experiments:
[1] = target: T1, HPK1 kinase (Homo sapiens, UniProt Q92918); assay: Activity of degrading HPK1 in Jurkat cells (Western blot, 24 h); type: cell-based; set-up: endogenous in cells; host or cells: Jurkat; conditions: HPK1 protein degradation, class symbols
Experimental: The adjusted samples are added to 5*loading buffer, boiled at 100°C for 10 minutes, and then the samples are loaded after the temperature is returned to room temperature. • 4) Detection of samples: Electrophoresis is performed using 10% SDS-PAGE with a sample loading volume of 8 µL/well. After the membrane transfer is completed, the samples are blocked with 5% BSA at room temperature for 1 h. After the residual blocking solution is washed away with TBST, HPK1 and GAPDH antibodies are added for incubation overnight at 4°C. Washing is performed 3 more times with TBST on a shaker, 10 minutes each time. After washing is completed, the secondary antibody is added for incubation at room temperature for 1 hour; then, washing is performed 3 more times with TBST on a shaker, 10 minutes each time; finally, ECL exposure solution is used to develop and image the bands to detect changes in HPK1 protein.

[2] = system: HPK1/GLK; assay: Selectivity of degrading HPK1/GLK in Jurkat cells (Western blot, 24 h); type: cell-based; conditions: HPK1/GLK Fold = DC50 (HPK1) / DC50 (GLK)
Experimental: • 1) Cell plating: Cells are resuscitated, Jurkat cell lines in good growth condition are selected, and cells in the logarithmic growth phase are collected and counted; cell suspensions are seeded into 12 or 24-well plates (20W/well) and incubated overnight at 37°C in a 5% CO2 incubator. • 2) Preparation of compounds to be tested: The compounds to be tested are serially diluted with DMSO according to the experimental requirements and added to the corresponding cell wells, to be incubated at 37°C in a 5% CO2 incubator for 24 h. • 3) Preparation of samples: After the reaction of the compound to be tested is completed, the cells are collected in 1.5 mL EP tubes, and centrifuged at 1500 rpm for 5 min; after the supernatant is discarded, the cells are washed once with PBS, and the BCA protein is quantified and the concentration is adjusted. The adjusted samples are added to 5*loading buffer, boiled at 100°C for 10 minutes, and then the samples are loaded after the temperature is returned to room temperature. • 4) Detection of samples: Electrophoresis is performed using 10% SDS-PAGE with a sample loading volume of 10 µL/well. After the membrane transfer is completed, the samples are blocked with 5% skim milk at room temperature for 1 h. After the residual blocking solution is washed away with TBST, HPK1 and GLK antibodies are added for incubation overnight at 4°C. Washing is performed 3 more times with TBST on a shaker, 5 minutes each time. After washing is completed, the secondary antibody is added for incubation at room temperature in a shaker for 1 hour; then, washing is performed 3 more times with TBST on a shaker, 5 minutes each time; finally, the membrane is soaked in TBST and then subjected to chemiluminescence development. • 5) Data Processing: After the PVDF membrane is developed, the data are exported and plotted using Imang J, and the gray values of the protein bands are analyzed using Image J software; the DC50 curve is fitted using Graphpad Prism 9 software to obtain the results of the selectivity of the compound in degrading HPK1/GLK: HPK1/GLK Fold = DC50 (HPK1) / DC50 (GLK) . Table 3 Selectivity of the compounds of the invention in degrading HPK1/GLK

[3] = target: T1, HPK1 kinase; assay: Lantha screen assay, inhibitory effect on HPK1 kinase; type: biochemical; conditions: initial compound concentration 1 µM
Method in brief: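 Kinase pre-incubated with compound for 10 min at room temperature in 50 mM HEPES pH 7.5, 10 mM MgCl2, 4 mM DTT, 0.01% Tween-20, 0.01% BSA. Fluorescein-PKC substrate plus ATP then added for 90 min, stopped with antibody/EDTA for 60 min. Top concentration 1 µM; IC50 from four-parameter fit of inhibition vs log concentration.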

T1 sequence (Q92918 whole entry): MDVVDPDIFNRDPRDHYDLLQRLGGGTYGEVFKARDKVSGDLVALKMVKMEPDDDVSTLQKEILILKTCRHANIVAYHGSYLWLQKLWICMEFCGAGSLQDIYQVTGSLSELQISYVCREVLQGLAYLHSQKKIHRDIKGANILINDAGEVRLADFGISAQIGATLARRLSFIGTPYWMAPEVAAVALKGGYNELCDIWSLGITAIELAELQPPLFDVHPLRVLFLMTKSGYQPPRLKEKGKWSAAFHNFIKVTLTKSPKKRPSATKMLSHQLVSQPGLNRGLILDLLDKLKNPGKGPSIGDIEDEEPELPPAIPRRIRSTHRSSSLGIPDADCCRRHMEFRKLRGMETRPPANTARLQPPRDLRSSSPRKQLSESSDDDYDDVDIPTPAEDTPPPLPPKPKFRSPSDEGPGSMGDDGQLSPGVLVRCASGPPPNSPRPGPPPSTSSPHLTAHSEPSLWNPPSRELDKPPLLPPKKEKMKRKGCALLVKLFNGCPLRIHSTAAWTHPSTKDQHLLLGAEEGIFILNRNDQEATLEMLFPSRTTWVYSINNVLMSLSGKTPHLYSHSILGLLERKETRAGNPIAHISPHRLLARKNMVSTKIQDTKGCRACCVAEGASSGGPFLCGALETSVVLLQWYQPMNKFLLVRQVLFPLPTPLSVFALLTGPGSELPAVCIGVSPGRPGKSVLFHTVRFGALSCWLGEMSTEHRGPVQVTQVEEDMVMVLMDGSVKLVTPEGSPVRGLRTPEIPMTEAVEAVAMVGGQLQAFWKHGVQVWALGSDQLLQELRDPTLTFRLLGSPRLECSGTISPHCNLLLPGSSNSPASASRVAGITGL

Structure (SMILES)	DC50 [1] [nM]	HPK1/GLK Fold [2]	IC50 [3] [nM]
Cc1cc(-c2cnc3[nH]cc(-c4ccc(C(=O)N(C)C)cc4)c3n2)cc(C)c1C1=CCN(CC2CCN(c3ccc(NC4CCC(=O)NC4=O)cc3F)CC2)CC1 (stereo not drawn) [compound 018]	< 10	++++ (1000≤Fold)	< 10
Cc1cc(-c2cnc3[nH]cc(-c4ccc(C(=O)N(C)C)cc4)c3n2)cc(C)c1C1=CCN(CC2CN(c3cc(F)c(N4CCC(=O)NC4=O)c(F)c3)C2)CC1 [compound 079]		++++ (1000≤Fold)	< 10
Cc1cc(-c2cnc3[nH]cc(-n4cc(CC(F)(F)F)cn4)c3n2)cc(C)c1C1=CCN(CC2CN(c3ccc(N4CCC(=O)NC4=O)c(F)c3)C2)CC1 [compound 162]	< 10	++++ (1000≤Fold)	< 10
Cc1cc(-c2cnc3[nH]cc(-n4cc(C5CC5)cn4)c3n2)cc(C)c1C1=CCN(CC2CN(c3ccc(N4CCC(=O)NC4=O)c(F)c3)C2)CC1 [compound 160]	< 10	++++ (1000≤Fold)	< 10
Cc1cc(-c2cnc3[nH]cc(-c4ccc(C(=O)N(C)C)cc4)c3n2)cc(C)c1C1=CCN(C2CN(c3ccc(C(=O)NC4CCC(=O)NC4=O)nc3)C2)CC1 (stereo not drawn) [compound 012]		++++ (1000≤Fold)	< 10
Cc1cc(-c2cnc3[nH]cc(-c4ccc(C(=O)N(C)CC(C)O)cc4)c3n2)cc(C)c1C1=CCN(CC2CN(c3ccc(N4CCC(=O)NC4=O)c(F)c3)C2)CC1 (stereo not drawn) [compound 107]		++++ (1000≤Fold)	< 10
Cc1cc(-c2cnc3[nH]cc(-c4ccc(C(=O)N(C)C)cc4)c3c2)cc(C)c1C1=CCN(CC2CN(C(=O)c3ccc(Cl)c(N4CCC(=O)NC4=O)c3)C2)CC1 [compound 130]		++++ (1000≤Fold)	< 10
COc1ccc(C(=O)N2CC(N3CC=C(c4c(C)cc(-c5cnc6[nH]cc(-c7ccc(C(=O)N(C)C)cc7)c6n5)cc4C)CC3)C2)cc1N1CCC(=O)NC1=O [compound 061]		++++ (1000≤Fold)	< 10
Cc1cc(-c2cnc3[nH]cc(-n4cc(F)cn4)c3n2)cc(C)c1C1=CCN(CC2CN(c3ccc(N4CCC(=O)NC4=O)c(F)c3)C2)CC1 [compound 163]	< 10	++++ (1000≤Fold)	< 10
Cc1cnn(-c2c[nH]c3ncc(-c4cc(C)c(C5=CCN(CC6CN(c7ccc(N8CCC(=O)NC8=O)c(F)c7)C6)CC5)c(C)c4)nc23)c1 [compound 158]	< 10		< 10
Cc1cc(-c2cnc3[nH]cc(-c4ccc(C(=O)N5CC6(COC6)C5)cc4)c3n2)cc(C)c1C1=CCN(CC2CN(c3ccc(N4CCC(=O)NC4=O)c(F)c3)C2)CC1 [compound 105]	< 10	++++ (1000≤Fold)	< 10
Cc1cc(-c2cnc3[nH]cc(-n4cc(N5CCOCC5)cn4)c3n2)cc(C)c1C1=CCN(CC2CN(c3ccc(N4CCC(=O)NC4=O)c(F)c3)C2)CC1 [compound 157]	< 10		< 10
Cc1cc(-c2cnc3[nH]cc(-c4cnsc4)c3n2)cc(C)c1C1=CCN(CC2CN(c3ccc(N4CCC(=O)NC4=O)c(F)c3)C2)CC1 [compound 154]	< 10		< 10
Cc1cc(N2CC(CN3CC=C(c4c(C)cc(-c5cnc6[nH]cc(-c7ccc8c(c7)CCN(C)C8=O)c6c5)cc4C)CC3)C2)ccc1N1CCC(=O)NC1=O [compound 099]	< 10	++++ (1000≤Fold)	< 10
Cc1cc(N2CC(C(C)N3CC=C(c4c(C)cc(-c5cnc6[nH]cc(-c7ccc(C(=O)N(C)C)cc7)c6n5)cc4C)CC3)C2)ccc1N1CCC(=O)NC1=O (stereo not drawn) [compound 042]		++++ (1000≤Fold)	< 10
Cc1cc(N2CC(CN3CC=C(c4ccc(-c5cnc6[nH]cc(-c7ccc(C(=O)N(C)C)cc7)c6c5)cc4C(C)C)CC3)C2)ccc1N1CCC(=O)NC1=O [compound 129]	< 10	++++ (1000≤Fold)	< 10
Cc1cc(N2CC(CN3CC=C(c4c(C)cc(-c5cnc6[nH]cc(-c7ccc(C(=O)N(C)C)cc7F)c6n5)cc4C)CC3)C2)ccc1N1CCC(=O)NC1=O [compound 140]	< 10		< 10
Cc1cc(-c2cnc3[nH]cc(-c4cnc5cc(F)ccn45)c3n2)cc(C)c1C1=CCN(CC2CN(c3ccc(N4CCC(=O)NC4=O)c(F)c3)C2)CC1 [compound 167]	< 10	++++ (1000≤Fold)	< 10
Cc1cc(-c2c[nH]c3ncc(-c4cc(C)c(C5=CCN(CC6CN(c7ccc(N8CCC(=O)NC8=O)c(F)c7)C6)CC5)c(C)c4)nc23)ccc1C(=O)N(C)C [compound 146]		++++ (1000≤Fold)	< 10
Cc1cc(-c2cnc3[nH]cc(-n4cc(C(F)F)cn4)c3n2)cc(C)c1C1=CCN(CC2CN(c3ccc(N4CCC(=O)NC4=O)c(F)c3)C2)CC1 [compound 159]	< 10		< 10
Cc1cc(-c2cnc3[nH]cc(-c4cnc5ccc(C#N)cn45)c3n2)cc(C)c1C1=CCN(CC2CN(c3ccc(N4CCC(=O)NC4=O)c(F)c3)C2)CC1 [compound 166]	< 10		< 10
Cc1cc(-c2cnc3[nH]cc(-c4ccc(C(=O)N(C)C)cc4)c3n2)cc(C)c1C1=CCN(CC2CN(c3ccc(C(=O)NC4CCC(=O)NC4=O)cn3)C2)CC1 (stereo not drawn) [compound 089]		++++ (1000≤Fold)	< 10
COCCCN(C)C(=O)c1ccc(-c2c[nH]c3ncc(-c4cc(C)c(C5=CCN(CC6CN(c7ccc(N8CCC(=O)NC8=O)c(C)c7)C6)CC5)c(C)c4)cc23)cc1 [compound 109]	< 10	++++ (1000≤Fold)	< 10
Cc1cc(-c2cnc3[nH]cc(-c4ccc(C(=O)N(C)C)cc4)c3c2)cc(C)c1C1=CCN(CC2CN(c3ccc(N4CCC(=O)NC4=O)c(Cl)c3)C2)CC1 [compound 142]	< 10		< 10
Cc1cc(-c2cnc3[nH]cc(-c4ccc(C(=O)N(C)C)cc4)c3n2)cc(C)c1C1=CCN(C2CC3(CCN(c4ccc(N5CCC(=O)NC5=O)c(F)c4)C3)C2)CC1 (stereo not drawn) [compound 117]	< 10		< 10
Cc1cc(N2CC(CN3CC=C(c4c(C)cc(-c5cnc6[nH]cc(-c7cnc8ccn(C)c8c7)c6c5)cc4C)CC3)C2)ccc1N1CCC(=O)NC1=O [compound 111]	< 10		< 10
Cc1cc(-c2cnc3[nH]cc(-n4cc(C#N)cn4)c3n2)cc(C)c1C1=CCN(CC2CN(c3ccc(N4CCC(=O)NC4=O)c(F)c3)C2)CC1 [compound 161]	< 10		< 10
